# Reference: patent US12402621B2, “Method for increasing longevity and/or bud opening of cut flowers” (LETAVIS AB, priority 2019, dated 2025)
# Experiments:
# Assay type in all cases: in vivo
# [1] = system: roses of the type Upper class; experiment: Effect of oxytocin on the survival of cut roses of the type Upper class (appearance scores after pretreatment in cold-storage room); conditions: oxytocin 1-10 μmolar in water, cold-storage room 18 days, then tap water at room temperature; assessed at 4, 9, 15 and 20 days; FIG. 2
# Description: The stalks of newly delivered roses of the type Upper class were cut (1 cm from the lowest part of the stem) and thereafter the roses were placed in buckets containing water with different doses of oxytocin (For doses see Table 1 and kept in a cold-storage room for 18 days. Four roses were included in each treatment group.
# Thereafter, the roses were moved to a home-like setting with normal room temperature. The stalk of the roses was cut again and the roses were placed in individual vases filled with tap water.
# (§1) The assessment criteria were: degree of bud opening (i.e. degree of flower turn-out), degree of drooping (i.e. how bent the stalk was, freshness of the petals, freshness of the sepals and freshness of stem leaves. Each assessment criterion was given a score from 1-5 according to the description. An average score based on all the assessment criteria was also calculated.
# [2] = system: roses of the type Furiosa; experiment: Effect of oxytocin on the florescence of cut roses of the type Furiosa (appearance scores after pretreatment in cold-storage room)
# Experimental: The stalks of newly delivered roses of the type Furiosa were cut (1 cm from the lowest part of the stem) and thereafter the roses were placed in buckets containing water with different doses of oxytocin (0, 0.1, 1 and 10 μM) and kept in a cold-storage room for […]. Nine roses were included in each treatment group.
# Thereafter, the roses were moved to a home like setting with normal room temperature. The stalks of the roses were again cut and the roses were placed in individual vases filled with tap water.
# as §1, with “freshness of the stem leaves.” for “freshness of stem leaves.”
# [3] = system: roses of the type Belle Rose; experiment: Effect of oxytocin on the survival of cut roses of the type Belle Rose (appearance scores after pretreatment in cold-storage room); conditions: oxytocin 1, 5 and 10 μM in the presence of Chrysal, in particular 10 μM; cold-storage room 3 days, then tap water at room temperature; FIGS. 5 and 6
# Experimental: The stalks of newly delivered roses of the type Belle Rose were cut (1 cm from the lowest part of the stem) and thereafter the roses were placed in buckets containing tap water or tap water with different doses of oxytocin (0, 1, 5 and 10 μM in the presence of Chrysal) and kept in a cold-storage room for 3 days. Eight to nine roses were included in each bucket.
# Thereafter, the roses were moved to a home like setting with normal room temperature. The stalks of the roses were again cut and the rose bouquets were placed in vases filled with tap water.
# as §1, with “The appearance of the roses was assessed at 0, 2, 4, 7 10 and 13 days after being placed in the home like setting according to the criteria shown in Table 2 (see Example 1). The assessment” for “The assessment”, “freshness of the stem leaves.” for “freshness of stem leaves.”
substance,measurement,setting,value
oxytocin,"individual assessments (bud opening, drooping, freshness of petals, sepals, stem leaves)",[1],in a positive direction
same,duration of time during which the roses kept fresh and attractive (days with bud opening score above 1.5),"[2]; in particular with 10 μM oxytocin, after being put in tap water in home-like setting, FIG. 4",increased in response to oxytocin
same,degree of bud opening,"[2]; oxytocin 0.1, 1 and 10 μM, in particular 10 μM, pretreatment in cold-storage room, then tap water at room temperature, FIG. 3",increased the degree of bud opening
same,effect on degree of bud opening by length of oxytocin treatment,"[2]; treatment with oxytocin for 3 days versus 6 hours in cold-storage room, FIG. 3",more pronounced after treatment with oxytocin for 3 days than for 6 hours
same,duration of time during which the roses kept fresh and attractive,[3],increased in response to oxytocin
same,level of florescence,[3],increased the level of florescence
